Legend:
SMO (spermine oxidase) = SMO (spermine oxidase) (Homo sapiens, UniProt Q9NWM0); assay: luminol/HRP chemiluminescence assay of H2O2 with purified recombinant enzyme; assay type: biochemical
[1] = target: APAO (N1-acetylpolyamine oxidase) (Homo sapiens, UniProt Q6QHF9); assay: as above; assay type: biochemical
APAO (N1-acetylpolyamine oxidase), sequence (Q6QHF9 whole entry): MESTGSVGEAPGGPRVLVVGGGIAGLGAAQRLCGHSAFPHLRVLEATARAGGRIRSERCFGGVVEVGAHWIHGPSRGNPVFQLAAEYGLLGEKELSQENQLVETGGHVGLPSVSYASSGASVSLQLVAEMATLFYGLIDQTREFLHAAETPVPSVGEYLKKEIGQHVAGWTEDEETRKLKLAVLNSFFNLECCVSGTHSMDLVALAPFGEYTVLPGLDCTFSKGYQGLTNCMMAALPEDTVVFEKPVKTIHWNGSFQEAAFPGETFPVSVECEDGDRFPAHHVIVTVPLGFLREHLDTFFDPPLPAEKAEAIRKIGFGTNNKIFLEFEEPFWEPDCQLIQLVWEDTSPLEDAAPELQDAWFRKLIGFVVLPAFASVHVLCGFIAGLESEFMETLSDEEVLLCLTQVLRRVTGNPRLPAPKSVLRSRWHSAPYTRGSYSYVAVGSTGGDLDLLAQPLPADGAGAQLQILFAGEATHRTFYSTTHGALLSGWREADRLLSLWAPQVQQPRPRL

SMO (spermine oxidase), sequence (Q9NWM0 whole entry): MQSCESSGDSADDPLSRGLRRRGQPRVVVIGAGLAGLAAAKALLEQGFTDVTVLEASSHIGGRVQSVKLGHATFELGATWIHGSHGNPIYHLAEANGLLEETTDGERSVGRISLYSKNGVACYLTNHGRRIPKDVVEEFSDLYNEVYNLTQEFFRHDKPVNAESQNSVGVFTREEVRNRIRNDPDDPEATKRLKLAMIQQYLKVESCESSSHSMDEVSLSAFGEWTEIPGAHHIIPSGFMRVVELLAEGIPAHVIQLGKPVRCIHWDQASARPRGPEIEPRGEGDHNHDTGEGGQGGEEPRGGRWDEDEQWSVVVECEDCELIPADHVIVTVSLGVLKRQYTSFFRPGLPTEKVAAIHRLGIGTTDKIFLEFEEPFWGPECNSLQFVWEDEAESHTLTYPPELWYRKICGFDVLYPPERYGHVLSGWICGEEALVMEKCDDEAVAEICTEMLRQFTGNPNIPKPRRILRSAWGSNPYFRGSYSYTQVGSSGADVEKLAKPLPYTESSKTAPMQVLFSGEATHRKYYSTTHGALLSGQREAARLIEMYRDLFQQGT

Compound CN(C)CCCNCCCNC(=O)c1cccc2cccnc12 [SI-4650, N-(3-{[3-(dimethylamino)propyl]amino}propyl)-8-quinolinecarboxamide] has an IC50 (SMO (spermine oxidase)) of 381.8 ± 0.17 µM and an IC50 [1] of 35.4 ± 0.26 µM.
